Key:
[1] = Measurement of Liposomal pKa (TNS fluorescence, LNP without nucleic acid); details: cationic lipid:DOPC:Chol = 52.5:7.5:40 (molar ratio) + DMG-PEG2k about 1.5 mol, pH at which the relative fluorescence intensity was 50%
Experimental: Lipid nano particles (LNP) without containing nucleic acid were used for the evaluation of Liposomal pKa.
To the obtained mixture was further added DMG-PEG2k (2 mM ethanol solution) in an amount of about 1.5 mol with respect to the total amount 100 mol of cationic lipid, DOPC, and Chol, and then ethanol was added to prepare an ethanol solution of the lipid (total amount: 360 µL).
An acidic malic acid buffer (20 mM, pH 3.0) (1080 µL) containing NaCl at a final concentration of 30 mM and an ethanol solution (360 µL) of lipid were each weighed in a syringe. Using an ultra high-speed nanomedicament producing apparatus NanoAssmblr (manufactured by Precision NanoSystems), LNP was prepared under the conditions of addition rate of acidic buffer solution: 3 mL/min, addition rate of ethanol solution of lipid: 1 mL/min, and syringe holder temperature: 25°C, and collected in a 15 mL tube. […]
20 mM Citrate buffer, sodium phosphate buffer, and tris HCl buffer, each containing NaCl at a final concentration of 150 mM and adjusted to various pHs within the range of pH 3.0 to 10.0, were prepared. […] The relative fluorescence intensity was calculated as a percentage, with the maximum value of the fluorescence intensity in each LNP being 100% and the minimum value being 0%.

HeLa cells = assay: In vitro gene expression in HeLa cells (luciferase mRNA-encapsulating LNP, cumulative luminescence in 24 hr)
Experimental: LNP encapsulating mRNA that expresses luciferase (cationic lipid:DOPC:Chol:DMG-PEG2k = 50:10:40:1 (molar ratio)) was prepared by the method described in [Experimental Example 2], 1.
HeLa cells, which are human cervical cancer cells, were seeded in a 3.5 cm dish at 5.0×10^4 cells/2 mL/Dish 24 hours before transfection. After 24 hr, the medium was changed to a culture medium (D-MEM) containing 0.1 mM D-luciferin. The prepared mRNA-encapsulating LNP was diluted with PBS to an mRNA concentration of about 1 µg/mL. The diluted mRNA-encapsulating LNP solution (about 200 µL, mRNA: 0.2 µg) was added to a 3.5 cm dish, and set in an incubator luminometer KronosDio. The luminescence intensity of luciferase was measured for 2 min every one hour. The cumulative luciferase luminescence intensity in 24 hr was calculated from the obtained time change of expression. […] In Comparative Example, the cationic lipid described in Table 2 was used.

[2] = Particle size, PdI and zeta potential of mRNA-encapsulating LNPs by dynamic light scattering (Experimental Example 2); type: physicochemical
Experimental: An acidic buffer solution (total amount: 1080 µL) of nucleic acid was prepared by weighing 7.2 µg of mRNA solution (0.6 mg/mL) in a 5 mL tube and adding acidic malate buffer (20 mM, pH 3.0).
An acidic buffer solution of nucleic acid and an ethanol solution of lipid were each weighed in a syringe.
The particle size, PdI (Polydispersity Index), and zeta potential of the mRNA-encapsulating LNP prepared by the method of the above-mentioned 1 were measured by a dynamic light scattering method (Zetasizer Nano; Malvern).

liver [3] = assay: In vivo gene expression, luciferase luminescence in the liver after tail vein administration (Experimental Example 4); details: BALB/c mouse, mRNA 0.05 mg/kg; for amount of luminescence (photons/sec) in liver: tail vein, 4.5 hr after administration, LNP cationic lipid:DOPC:Chol:DMG-PEG2k = 52.5:7.5:40:1.5, prepared as in Experimental Example 2; for relative amount of luminescence: liver luminescence relative to cationic lipid of Comparative Example
Experimental: LNP encapsulating mRNA that expresses luciferase (cationic lipid:DOPC:Chol:DMG-PEG2k = 52.5:7.5:40:1.5 (molar ratio)) was prepared by the method described in [Experimental Example 2], 1.
(§1) The prepared each mRNA-encapsulating LNP dispersion was administered from the tail vein of BALB/c mouse (male, 5-week-old). The dose of mRNA was set to 0.05 mg per 1 kg body weight of the mouse, and the dose of the mRNA-encapsulating LNP dispersion was set to 10 µL per 1 g body weight of the mouse. After 4.5 hr from the administration of the mRNA-encapsulating LNP dispersion, a PBS solution of D-luciferin potassium was administered into the abdominal cavity of the mouse. The dose of D-luciferin potassium was set to 3 mg per mouse, and the dose of the PBS solution of D-luciferin potassium was set to 200 µL per mouse. After 15 min from the administration of the PBS solution of D-luciferin potassium, the mouse was euthanized, and the liver was isolated. The luminescence in the liver was quantified using an in vivo imaging system (IVIS) with an exposure of 10 sec. The amount of luminescence in the liver was quantified by image analysis using Live Imaging software attached to IVIS. The amount of luminescence (photons/sec) was calculated from the acquired image and used as an index of gene expression activity. The cationic lipids used, the luminescence intensity in the liver, and the relative luminescence intensity (= luminescence intensity in the liver when cationic lipid of Example was used/luminescence intensity in the liver when cationic lipid of Comparative Example was used) are shown in Table 7-1 to Table 7-3. "E+0a" (a: integer) indicated in Table 7-1 to Table 7-3 means "10^a". For example, "3.94E+09" means "3.94×10^9". […]

mouse red blood cells [4] = assay: Hemolysis activity (membrane fusion ability) at pH 7.4 and 5.5 (Experimental Example 5); type: cell-based, ICR mice
Experimental: LNPs encapsulating mRNA that expresses luciferase (cationic lipid:DOPC:Chol:DMG-PEG2k=52.5:7.5:40:1.5 (molar ratio)) were prepared using the method described in [Experimental Example 2] 1. As cationic lipid, the cationic lipid of Comparative Example, compound 9, compound 14, compound 27, compound 33, or compound 42 was used.
(§2) The collected blood was immediately mixed with 1.0 µL of heparin solution (5000 U/5 mL). About 9 mL of PBS was added to the blood to make the total volume 10 mL. The mixture was then mixed by inversion and centrifuged (4°C, 400 g, 10 min). The supernatant containing plasma components was removed using a Pasteur pipette. About 9 mL of PBS was added to the blood cell components to make the total volume 10 mL, and the mixture was centrifuged again. A similar washing procedure was repeated 4 times to obtain mouse red blood cells.
2, 4, 6, 8, and 10 µL of mouse red blood cells were weighed and diluted with PBS containing 1 w/v% Triton-X100. The entire diluted solution was transferred to a clear 96-well plate, and the absorbance at 545 nm was measured using a plate reader. A calibration curve was created using these samples, and the point where the absorbance reached 1 was determined as the amount of blood cells to be used in the hemolysis assay. Empty LNP solution was weighed into an Eppendorf tube and diluted with malic acid-PBS buffer (pH 5.5, pH 7.4), followed by addition of mouse red blood cells. The final lipid concentration was 100 µM at pH 7.4 and 33.3 µM at pH 5.5, and the final volume of the solution was 250 µL. Each tube was shaken at 1900 rpm for 15 min. Each sample was centrifuged under centrifugation conditions (4°C, 400 g, 5 min), and 100 µL of the supernatant was transferred to a clear 96-well plate and the absorbance at 545 nm was measured. Untreated red blood cells were used as the negative control. […] The hemolysis activity of each sample was calculated using the following formula: Hemolysis activity (%) = 100×(absorbance of each sample - absorbance of negative control)/(absorbance of positive control - absorbance of negative control).

mouse red blood cells [5] = assay: Hemolysis activity (membrane fusion ability) at pH 7.4 and 5.5 (Experimental Example 8); type: cell-based, ICR mice
Experimental: LNP encapsulating mRNA that expresses luciferase (cationic lipid:DOPC:Chol:DMG-PEG2k = 52.5:7.5:40:1.5 (molar ratio)) was prepared by the method described in […], 1. As cationic lipid, the cationic lipid of Comparative Example, compound 94, compound 112, compound 162, compound 181, or compound 194 was used.
as §2
2, 4, 6, 8, and 10 µL of mouse red blood cells were weighed and diluted with PBS containing 1 w/v% Triton-X100. The entire diluted solution was transferred to a clear 96-well plate, and the absorbance at 545 nm was measured using a plate reader. A calibration curve was created using these samples, and the point where the absorbance reached 1 was determined as the amount of blood cells to be used in the hemolysis assay. Empty LNP solution was weighed into an Eppendorf tube and diluted with malic acid-PBS buffer (pH 5.5, pH 7.4), followed by addition of mouse red blood cells. The final lipid concentration was 100 µM at pH 7.4 and 33.3 µM at pH 5.5, and the final volume of the solution was 250 µL. Each tube was shaken at 1900 rpm for 15 min. Each sample was centrifuged under centrifugation conditions (4°C, 400 g, 5 min), and 100 µL of the supernatant was transferred to a clear 96-well plate and the absorbance at 545 nm was measured. Untreated red blood cells were used as the negative control. 1 w/v% Triton-X was used as the positive control. The hemolysis activity of each sample was calculated using the following formula: Hemolysis activity (%) = 100×(absorbance of each sample - absorbance of negative control)/(absorbance of positive control - absorbance of negative control).

[6] = Particle size, PdI and zeta potential of mRNA-encapsulating LNPs by dynamic light scattering (Experimental Example 6); type: physicochemical; details: mRNA-encapsulating LNP; for zeta potential (mV): cationic lipid:DOPC:Chol=49:7.5:42.5:1, dispersion in TBS (Tables 8-1, 8-2); for PdI / particle size (nm): cationic lipid:DOPC:Chol=49:7.5:42.5:1, dispersion in TBS, dynamic light scattering (Tables 8-1, 8-2)
Experimental: An acidic buffer solution (total amount: 1300 µL) of nucleic acid was prepared by weighing 6.5 µg of mRNA solution (0.6 mg/mL) in a 5 mL tube and adding acidic citrate buffer (20 mM, pH 5.0).
An acidic buffer solution of nucleic acid and an ethanol solution of lipid were each weighed in a syringe. […] The obtained concentrate was diluted with TBS to a lipid concentration of 2 mM to give a dispersion containing LNP.
The particle size, PdI (Polydispersity Index), and zeta potential of the mRNA-encapsulating LNP prepared by the method of the above-mentioned 1 were measured by a dynamic light scattering method (Zetasizer Nano; Malvern). […]

liver [7] = assay: In vivo gene expression, luciferase luminescence in the liver after tail vein administration (Experimental Example 7); details: BALB/c mouse, mRNA 0.05 mg/kg; for amount of luminescence (photons/sec) in liver: tail vein, 4.5 hr after administration, LNP cationic lipid:DOPC:Chol:DMG-PEG2k = 52.5:7.5:40:1.5, prepared as in Experimental Example 6; for relative amount of luminescence: liver luminescence relative to cationic lipid of Comparative Example
Experimental: LNP encapsulating mRNA that expresses luciferase (cationic lipid:DOPC:Chol:DMG-PEG2k = 52.5:7.5:40:1.5 (molar ratio)) was prepared by the method described in [Experimental Example 6], 1.
as §1, with “9.” for “7-1 to Table 7-3. "E+0a" (a: integer) indicated in Table 7-1 to Table 7-3 means "10^a".”

[8] = mRNA-encapsulating LNP containing the cationic lipid, dispersion in PBS (Table 5-3)
[9] = mRNA-encapsulating LNP containing the cationic lipid, dispersion in PBS, dynamic light scattering (Table 5-3)
[10] = pH of the endosomal environment (5.5), final lipid concentration 33.3 µM, Fig. 4, versus LNP of Comparative Example
[11] = physiological pH (7.4), final lipid concentration 100 µM, Fig. 3

CCCCCCCC/C=C\CCCCCCCC(=O)O[C@H](C/C=C\CCCCCCCC(=O)Oc1ccc(CC(=O)OCCC2CCN(CCSSCCN3CCC(CCOC(=O)Cc4ccc(OC(=O)CCCCCCC/C=C\C[C@H](CCCCCC)OC(=O)CCCCCCC/C=C\CCCCCCCC)cc4)CC3)CC2)cc1)CCCCCC [compound 4]
Liposomal pKa [1]: 6.25

CCCCCCCC/C=C\CCCCCCCC(=O)Oc1ccc(CC(=O)OCCC2CCN(CCSSCCN3CCC(CCOC(=O)Cc4ccc(OC(=O)CCCC(=O)OC[C@H](COC(=O)CCCCCC)OC(=O)CCCCCC)cc4)CC3)CC2)cc1 [compound 14]
cumulative luciferase luminescence intensity (RLU) in 24 hr (HeLa cells; LNP cationic lipid:DOPC:Chol:DMG-PEG2k = 50:10:40:1, mRNA 0.2 µg per dish, E+0a means 10^a): 1.56E+08 RLU
relative luminescence intensity (HeLa cells; cumulative intensity in 24 hr relative to cationic lipid of Comparative Example): 8.44
PdI ([2]; mRNA-encapsulating LNP, cationic lipid:DOPC:Chol = 50:10:40 (molar ratio) + DMG-PEG2k about 1 mol, Polydispersity Index, dynamic light scattering): 0.073
zeta potential (mV) ([2]; mRNA-encapsulating LNP, cationic lipid:DOPC:Chol = 50:10:40 (molar ratio) + DMG-PEG2k about 1 mol, Zetasizer Nano): -2.80 mV
particle size (nm) ([2]; mRNA-encapsulating LNP, cationic lipid:DOPC:Chol = 50:10:40 (molar ratio) + DMG-PEG2k about 1 mol, dynamic light scattering): 92.18 nm
amount of luminescence (photons/sec) in liver (liver [3]): 6.12E+09 photons/sec
relative amount of luminescence (liver [3]): 4.03
hemolysis activity (mouse red blood cells [4]; pH of the endosomal environment (5.5), final lipid concentration 33.3 µM, Fig. 2, versus LNP of Comparative Example): superior hemolysis activity compared to LNP containing the cationic lipid of Comparative Example
hemolysis activity (mouse red blood cells [4]; physiological pH (7.4), final lipid concentration 100 µM, Fig. 1): did not exhibit hemolysis activity

CCCCCCCC/C=C\CCCCCCCC(=O)Oc1ccc(CC(=O)OCCC2CCN(CCSSCCN3CCC(CCOC(=O)Cc4ccc(OC(=O)CCCCCCCC(OC(=O)CC)C(CCCCCCCC)OC(=O)CC)cc4)CC3)CC2)cc1 (stereo not shown) [compound 94]
zeta potential (mV) [2, 8]: -2.40 mV
PdI [2, 9]: 0.048
particle size (nm) [2, 9]: 88.0 nm
hemolysis activity (mouse red blood cells [5]; [10]): superior hemolysis activity compared to the LNP containing the cationic lipid of Comparative Example
hemolysis activity (mouse red blood cells [5]; [11]): none
amount of luminescence (photons/sec) in liver (liver [3]): 9.40E+09 photons/sec
relative amount of luminescence (liver [3]): 6.18
zeta potential (mV) [6]: -4.45 mV
PdI [6]: 0.121
particle size (nm) [6]: 119.7 nm

CCCCCCCC(=O)OC(CC=CCCCCCCCC(=O)Oc1ccc(CC(=O)OCCC2CCN(CCSSCCN3CCC(CCOC(=O)Cc4ccc(OC(=O)CCCCCCCC=CCC(CCCCCC)OC(=O)CCCCC)cc4)CC3)CC2)cc1)CCCCCC (stereo not shown) [compound 162]
zeta potential (mV) [2, 8]: -5.04 mV
PdI [2, 9]: 0.041
particle size (nm) [2, 9]: 91.2 nm
hemolysis activity (mouse red blood cells [5]; [10]): superior hemolysis activity compared to the LNP containing the cationic lipid of Comparative Example
hemolysis activity (mouse red blood cells [5]; [11]): none
amount of luminescence (photons/sec) in liver (liver [3]): 4.43E+09 photons/sec
relative amount of luminescence (liver [3]): 2.85
zeta potential (mV) [6]: -3.44 mV
PdI [6]: 0.079
particle size (nm) [6]: 126 nm

CCCCCCCC/C=C\CCCCCCCC(=O)Oc1ccc(CC(=O)OCCC2CCN(CCSSCCN3CCC(CCOC(=O)Cc4ccc(OC(=O)CCCCCCC/C=C\CC(CCCCCC)OC(=O)C(CC)CCCC)cc4)CC3)CC2)cc1 (stereo not shown) [compound 166]
zeta potential (mV) [2, 8]: -2.5 mV
PdI [2, 9]: 0.047
particle size (nm) [2, 9]: 89.3 nm
amount of luminescence (photons/sec) in liver (liver [7]): 8.49E+09 photons/sec
relative amount of luminescence (liver [7]): 4.15
zeta potential (mV) [6]: -2.99 mV
PdI [6]: 0.09
particle size (nm) [6]: 130.5 nm

CCCCCCC(C/C=C\CCCCCCCC(=O)Oc1ccc(CC(=O)OCCC2CCN(CCSSCCN3CCC(CCOC(=O)Cc4ccc(OC(=O)CCCCCCC/C=C\CC(CCCCCC)OC(=O)c5ccc(OCC)c(OCC)c5)cc4)CC3)CC2)cc1)OC(=O)c1ccc(OCC)c(OCC)c1 (stereo not shown) [compound 173]
zeta potential (mV) [2, 8]: -4.4 mV
PdI [2, 9]: 0.070
particle size (nm) [2, 9]: 99.5 nm
amount of luminescence (photons/sec) in liver (liver [7]): 9.37E+09 photons/sec
relative amount of luminescence (liver [7]): 4.57
zeta potential (mV) [6]: -4.83 mV
PdI [6]: 0.035
particle size (nm) [6]: 126.1 nm

From EP4692059A1, “CATIONIC LIPID HAVING DISULFIDE BOND” (Tohoku University, priority 2023, dated 2024)
